We go through one molecule from paper PMC10224356, “Trisubstituted 1,3,5-Triazines as Histamine H4 Receptor Antagonists with Promising Activity In Vivo” (Molecules, 2023).

A word on the IC50: it is the point on the concentration scale where inhibition reaches its midpoint.

Test [1] deals with hH4R (Homo sapiens, UniProt Q9H3N8). Nature of the test: β-arrestin recruitment assay (LiveBLAzer, Tango-H4-bla U2OS cells). Type of test: cell-based. Set-up: expressed in transfected cells; host or cells: Tango-H4-bla U2OS cells. Here is the method:
Compounds were tested using LiveBLAzer^TM assay and Tango-H4-bla U2OS cells, allowing the estimation of the percentage of β-arrestin recruitment in response to tested treatments.
All used media and reagents except DMSO and tested compounds were purchased from ThermoFisher Scientific, Waltham, MA, USA. DMSO was from CarlRoth (Karlsruhe, Germany) and histamine was from Sigma Aldrich (Darmstadt, Germany). […] The day before the experiment cells were collected from the culture flask with trypsin and seeded in 384 well black-wall, clear-bottom plate (PerkinElmer, Waltham, MA, USA) in concentration 10,000 cells/well in FreeStyle medium. After 24 h of incubation, the cells were checked under the microscope and the dilutions of tested compounds were prepared and added to the wells. In agonist mode compounds were added to the wells and plates were placed in the incubator (HERAcell240, Heraeus, Hanau, Germany) for 16 h. In antagonist mode, first, the compounds were added to the wells, plates were incubated for 30 min, then histamine solution (corresponding to EC80—500 nM) was added and plates were put in the incubator for 16 h. After this time β-lactamase substrate mixture was prepared and added to wells (8 µL/well). Cells were incubated for 2 h at room temperature in the dark then the signal was read using an EnSpire microplate reader (PerkinElmer, Waltham, MA, USA). Drawing of dose-dependent curves and IC50 calculation for compounds were made using GraphPad Prism 6 (GraphPad Software, San Diego, CA, USA).
Background: Activated receptors often draw arrestin, which recruitment assays turn into a signal.

The test system of test [2] is rats. Nature of the test: Carrageenan-induced inflammatory pain and oedema. Type of test: in vivo. The text has this:
We wanted to confirm the activity in an additional model of inflammation in another species. To evaluate the influence of compound 6 on acute inflammation, such as oedema and hyperalgesia, we tested it in the carrageenan-induced inflammation model in rats. […] As oedema is one of the most significant symptoms of inflammation resulting from the release of inflammatory mediators, we may conclude that compound 6 has some anti-inflammatory activity. […] The response to mechanical stimuli was observed as the pain withdrawal threshold (Figure 8B) decreased from the value of 138.33 ± 1.05 g (baseline) before carrageenan injection to the value of 120.83 ± 2.0 g (87.3% of the baseline) 3 h after injection, 125.83 ± 2.51 (90.9% of the baseline) 6 h after injection, and 124.17 ± 2.0 (89.7% of the baseline). […] The results obtained confirmed its analgesic activity in mechanical inflammatory hyperalgesia. […] We claim that the effect may result from the inhibition of the release of inflammatory mediators and subsequent inhibition of peripheral and central sensitization. […] The effect was not as persistent as in the mechanical hyperalgesia and was observed only 1, 2 and 3 h after induction of inflammation.
The procedure used was described previously. Briefly, the inflammation and paw oedema was induced by subplantar injection of 0.1 mL of 1% carrageenan (made in PBS) into the right hind paw of the rat. The paw volume was measured by the dislocation of the water column of the plethysmometer (Plethysmometer 7140, Ugo Basile). The hyperalgesic response to mechanical stimuli was measured using Analgesy Meter 37215, Ugo Basile. The intensity of the applied force, in grams, was recorded when the paw was withdrawn (withdrawal threshold). Moreover, the hyperalgesic response to thermal stimuli was determined by using a plantar test apparatus (Commat Ltd., Ankara, Turkey). The latency to the heat stimulus was automatically recorded. Three subsequent applications of the heating stimulus were done, separated by 1- to 2-min intervals, and the mean of these measures was taken.
Figure 8 Effect of compound 6 on carrageenan-induced oedema (A), mechanical hyperalgesia (B) and thermal hyperalgesia (C) developed after subplantar injection of 1% carrageenan in rats. Data are expressed as means ± SEM for 5–6 animals. Time 0—the initial reaction considered as the nociceptive reaction before carrageenan administration. Statistical significance compared to vehicle-treated animals: * p < 0.05, ** p < 0.01, *** p < 0.001, **** p < 0.0001. Statistical analysis: two-way ANOVA post hoc Bonferroni test. Statistical significance compared to initial value (0 time point) in the vehicle-treated group: # p < 0.05, ## p < 0.01, ### p < 0.0001. Statistical analysis: one-way ANOVA followed by Dunnett’s post hoc test.

Test [3] relates to mice. Kind of test: Histamine-induced pruritus. The conditions noted are these: 25 mg/kg i.p. Type of test: in vivo. Here is the method: Intradermal injection of histamine induced scratching bouts in the amount of 62.11 ± 9.4. […].
The surface (around 2 cm^2) of the mice’s nape was shaved at least 2 days prior to experiments. On the day of the experiment, mice were individually placed in plastic chambers (15 × 15 × 30 cm) and after the 30 min habituation period, they were given an intradermal (i.d.) injection of histamine dihydrochloride (10 µmol/site) or chloroquine (CQ, 200 µg/site), which were dissolved in physiological saline and administrated in the constant volume of 20 μL. Immediately after the injection, scratching (series of movements considered as a single scratching bout) of the injected site by the hind paw was counted for 60 min or 30 min after histamine and CQ administration, respectively. Before pruritogens injection different groups of mice were treated i.p. with vehicle (10 mL/kg, negative control) or the dose–response of investigated compound.
Figure 9 The effect of compound 6 and reference compound pyrilamine (Pyr) on the number of scratching bouts during 60 min-long observation in histamine-induced pruritus (A) and 30 min-long observation in chloroquine-induced pruritus (B). The tested compound or vehicle (1% solution of Tween 80) was administered intraperitoneally (i.p.) 30 min before the intradermal (i.d.) injection of histamine or chloroquine. The results are presented as bar plots showing the mean ± SEM. Statistical analysis: one-way ANOVA followed by Dunnett’s post hoc test, * p < 0.05, ** p < 0.01, *** p < 0.001, n = 8–10 mice per group.

hH4R, sequence (Q9H3N8 whole entry): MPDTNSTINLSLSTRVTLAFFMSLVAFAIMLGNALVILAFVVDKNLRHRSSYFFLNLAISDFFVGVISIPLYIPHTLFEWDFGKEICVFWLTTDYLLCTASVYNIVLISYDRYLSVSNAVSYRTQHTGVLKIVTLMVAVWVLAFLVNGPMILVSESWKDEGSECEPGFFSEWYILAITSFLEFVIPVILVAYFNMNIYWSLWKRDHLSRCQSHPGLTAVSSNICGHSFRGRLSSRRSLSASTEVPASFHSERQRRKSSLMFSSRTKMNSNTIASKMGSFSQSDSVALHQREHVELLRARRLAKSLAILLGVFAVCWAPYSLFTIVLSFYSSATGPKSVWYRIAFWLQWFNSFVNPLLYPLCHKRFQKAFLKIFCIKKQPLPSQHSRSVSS

Turning to `CN1CCN(c2nc(N)nc(CC3CCCC3)n2)CC1` [Compound 6, 4-(Cyclopentylmethyl)-6-(4-methylpiperazin-1-yl)-1,3,5-triazin-2-amine], the IC50 in test [1] (antagonist mode, histamine 500 nM (EC80), Tango-H4-bla U2OS cells, read-out: β-arrestin hH4R IC50 ± SEM) worked out at 10 ± 1 nM. Moreover, in test [1] (at 10 µM, antagonist mode), the “β-arrestin hH4R % of max. Antagonist Activity at 10 µM” value amounted to 101%. Also, the Kb in test [1] (calculated from IC50 by Leff–Dougall variant of Cheng–Prusoff equation, read-out: pKb β-arrestin ± SEM (converted)) is 1.62 nM. The “Pain withdrawal threshold (mechanical hyperalgesia)” value is listed as 122.1 % of the baseline in test [2] (50 mg/kg, 3 h after carrageenan (vehicle 87.3%)); 119.5 % of the baseline in test [2] (50 mg/kg, 6 h after carrageenan (vehicle 90.9%)); 111.7 % of the baseline in test [2] (50 mg/kg, third time point (time not given, presumably 24 h; vehicle 89.7%)); 107.5 % of the baseline in test [2] (75 mg/kg, 3 h after carrageenan); 113.2 % of the baseline in test [2] (75 mg/kg, 6 h after carrageenan); 113.8 % of the baseline in test [2] (75 mg/kg, third time point (time not given, presumably 24 h)). Moreover, the “Paw volume increase (carrageenan oedema)” value is on record as 22.1% in test [2] (75 mg/kg, 1 h after carrageenan (vehicle 48.9%)); 46.3% in test [2] (75 mg/kg, 2 h after carrageenan (vehicle 79.3%)); 72.6% in test [2] (75 mg/kg, 3 h after carrageenan (vehicle 113.0%)); 76.8% in test [2] (75 mg/kg, 6 h after carrageenan (vehicle 115.2%)); 55.8% in test [2] (75 mg/kg, 24 h after carrageenan (vehicle 114.1%)). For the same molecule, the “Paw withdrawal latency (thermal hyperalgesia)” value is reported as 129.5 % of baseline in test [2] (75 mg/kg, 1 h after inflammation induction (vehicle 62.44%)); 103.6 % of baseline in test [2] (75 mg/kg, 2 h after inflammation induction (vehicle 65.13%)); 86.3 % of baseline in test [2] (75 mg/kg, 3 h after inflammation induction (vehicle 45.63%)). In addition, the “Scratch bouts, histamine-induced pruritus, % of the control value” in test [3] (60 min observation) is given as 13.47 % of the control value. For the same molecule, in test [3] (60 min observation (control 62.11 ± 9.4)), the “Number of scratch bouts, histamine-induced pruritus” value is given as 8.37 ± 1.96 scratch bouts.
